# Tests used:
# soybean = experiment: Test C postemergence; format: in vivo, Glycine max
# In short: (§1)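 Seeds are planted in blended loam soil and sand and treated preemergence, while seedlings in a peat moss/vermiculite medium receive postemergence sprays at 2 to 18 cm height. All plants stay in the greenhouse for 13 to 15 days before visual comparison with controls on a 0–100 scale.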
# rice = experiment: Test B flooded paddy test; format: in vivo, Oryza sativa; settings: Oryza sativa; Flood, 250 g ai/ha; 0 to 100 scale where 0 is no effect and 100 is complete control; read-out: Plant response rating, Rice
# In short: (§2)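 Seedlings are raised to two leaves, flooded to a depth of 3 cm and dosed by adding the compound to the floodwater. Water level is kept constant, and plants are scored visually versus controls 13–15 days later (0 = no effect, 100 = complete control).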
# galium = experiment: Test C postemergence; format: in vivo, Galium aparine; settings: Galium, post-emergence
# In short: as §1
# blackgrass = experiment: Test C postemergence; format: in vivo, Alopecurus myosuroides; settings: Alopecurus myosuroides, post-emergence
# Excerpt: (§3) Seeds of plant species selected from blackgrass (Alopecurus myosuroides), Italian ryegrass (Lolium multiflorum), wheat, winter (winter wheat, Triticum aestivum), galium (catchweed bedstraw, Galium aparine), corn (Zea mays), large (Lg) crabgrass (Digitaria sanguinalis), giant foxtail (Setaria faberii), johnsongrass (Sorghum halepense), lambsquarters (Chenopodium album), morningglory (Ipomoea coccinea), yellow nutsedge (Cyperus esculentus), pigweed (Amaranthus retroflexus), ragweed (common ragweed, Ambrosia elatior), soybean (Glycine max), barnyardgrass (Echinochloa crus-galli), oilseed rape (Brassica napus), waterhemp (common waterhemp, Amaranthus rudis), kochia (Kochia scoparia), wild oat (Avena fatua), surinam grass (Brachiaria decumbens), foxtail, green (green foxtail, Setaria viridis), goosegrass (Eleusine indica), bromegrass, downy (downy bromegrass, Bromus tectorum), nightshade (eastern black nightshade, Solanum ptycanthum), cocklebur (common cocklebur, Xanthium strumarium), cupgrass, woolly (woolly cupgrass, Eriochloa villosa), bermudagrass (Cynodon dactylon), sunflower, (common oilseed sunflower, Helianthus annuus), Russian thistle (Salsola kali), and velvetleaf (Abutilon theophrasti) were planted into a blend of loam soil and sand and treated preemergence with test chemicals formulated in a non-phytotoxic solvent mixture which included a surfactant.
# (§4) At the same time, plants selected from these crop and weed species and also barley, winter (winter barley, Hordeum vulgare), windgrass (Apera spica-venti), chickweed (common chickweed, Stellaria media), deadnettle (henbit deadnettle, Lamium amplexicaule), and canarygrass (littleseed canarygrass, Phalaris minor) were planted in pots containing Redi-Earth® planting medium (Scotts Company, 14111 Scottslawn Road, Marysville, Ohio 43041) comprising spaghnum peat moss, vermiculite, wetting agent and starter nutrients and treated with postemergence applications of test chemicals formulated in the same manner. Plants ranged in height from 2 to 18 cm (1- to 4-leaf stage) for postemergence treatments. Treated plants and controls were maintained in a greenhouse for 13 to 15 days, after which time all species were compared to controls and visually evaluated. Plant response ratings, summarized in Table C, are based on a scale of 0 to 100 where 0 is no effect and 100 is complete control. A dash (-) response means no test result.
# ragweed = experiment: Test C postemergence; format: in vivo, Ambrosia elatior
# Excerpt: as §3, §4
# large (Lg) crabgrass = experiment: Test C postemergence; format: in vivo, Digitaria sanguinalis; settings: Digitaria sanguinalis, post-emergence
# In short: as §1
# barnyardgrass [1] = experiment: Test A preemergence; format: in vivo, Echinochloa crus-galli
# In short: (§5)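 Injury scores run from 0, no effect, to 100, complete control, judged by eye against untreated plants roughly 10 days after treatment. Chemicals carried a surfactant in a non-phytotoxic solvent and went onto loam–sand soil preemergence or onto one- to two-leaf seedlings postemergence.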
# Italian ryegrass = experiment: Test C postemergence; format: in vivo, Lolium multiflorum
# Excerpt: as §3, §4
# barnyardgrass [2] = experiment: Test C postemergence; format: in vivo, Echinochloa crus-galli; settings: Echinochloa crus-galli, post-emergence
# Excerpt: as §3, §4
# yellow nutsedge = experiment: Test C postemergence; format: in vivo, Cyperus esculentus
# Excerpt: as §3, §4
# sedge, umbrella = experiment: Test B flooded paddy test; format: in vivo, Cyperus difformis; settings: Cyperus difformis, Flood, 250 g ai/ha; 0 to 100 scale where 0 is no effect and 100 is complete control; read-out: Plant response rating, Sedge, Umbrella
# In short: as §2
# pigweed = experiment: Test A postemergence; format: in vivo, Amaranthus retroflexus; settings: Amaranthus retroflexus, post-emergence, 0 to 100 scale, 0 no effect, 100 complete control, read-out: Plant response rating, Pigweed
# In short: as §5
# lambsquarters = experiment: Test C postemergence; format: in vivo, Chenopodium album
# Excerpt: as §3, §4
# [3] = 31 g ai/ha, postemergence, visual rating, scale 0 to 100 (0 no effect, 100 complete control), 13 to 15 days
compound,measurement,setting,value
"N#Cc1cccc(Oc2ncc(Cl)cn2)c1-n1cc(C(F)F)cn1 [Compound 253, 3-(5-chloropyrimidin-2-yl)oxy-2-[4-(difluoromethyl)-1H-pyrazol-1-yl]benzonitrile]",Soybean plant response rating,soybean; [3],60
same,"Soybean plant response rating (crop injury, 0-100 scale) at 16 g/ha","soybean; Glycine max, post-emergence, 16 g ai/ha, postemergence, 0 is no effect, 100 is complete control",40%
same,"Soybean plant response rating (crop injury, 0-100 scale) at 125 g/ha","soybean; Glycine max, post-emergence, 125 g ai/ha, postemergence, visual rating, scale 0 to 100 (0 no effect, 100 complete control), read-out: Plant response rating, Soybean",90%
same,"Soybean plant response rating (crop injury, 0-100 scale) at 62 g/ha","soybean; Glycine max, post-emergence, Postemergence, 62 g ai/ha, scale 0 to 100 (0 no effect, 100 complete control), 13 to 15 days",40%
same,plant injury at 250 g/ha,rice,25%
same,pest or weed control at 16 g/ha,"galium; 16 g ai/ha, postemergence, 0 is no effect, 100 is complete control, read-out: Plant response rating (0 to 100), Galium",45%
same,pest or weed control at 31 g/ha,"galium; 31 g ai/ha, postemergence, visual rating, scale 0 to 100 (0 no effect, 100 complete control), 13 to 15 days, read-out: Galium plant response rating",80%
same,pest or weed control at 125 g/ha,"galium; 125 g ai/ha, postemergence, visual rating, scale 0 to 100 (0 no effect, 100 complete control), read-out: Plant response rating, Galium",100%
same,pest or weed control at 62 g/ha,"galium; Postemergence, 62 g ai/ha, scale 0 to 100 (0 no effect, 100 complete control), 13 to 15 days, read-out: Plant response rating, Galium",80%
same,pest or weed control at 16 g/ha,"blackgrass; 16 g ai/ha, postemergence, 0 is no effect, 100 is complete control, read-out: Plant response rating (0 to 100), Blackgrass",0%
same,pest or weed control at 31 g/ha,"blackgrass; 31 g ai/ha, postemergence, visual rating, scale 0 to 100 (0 no effect, 100 complete control), 13 to 15 days, read-out: Blackgrass plant response rating",0%
same,pest or weed control at 125 g/ha,"blackgrass; 125 g ai/ha, postemergence, visual rating, scale 0 to 100 (0 no effect, 100 complete control), read-out: Plant response rating, Blackgrass",10%
same,pest or weed control at 62 g/ha,"blackgrass; Postemergence, 62 g ai/ha, scale 0 to 100 (0 no effect, 100 complete control), 13 to 15 days, read-out: Plant response rating, Blackgrass",0%
same,Ragweed plant response rating,ragweed; [3],45
same,pest or weed control at 16 g/ha,"ragweed; Ambrosia artemisiifolia, post-emergence, 16 g ai/ha, postemergence, 0 is no effect, 100 is complete control, read-out: Plant response rating (0 to 100), Ragweed",20%
same,pest or weed control at 125 g/ha,"ragweed; Ambrosia artemisiifolia, post-emergence, 125 g ai/ha, postemergence, visual rating, scale 0 to 100 (0 no effect, 100 complete control), read-out: Plant response rating, Ragweed",80%
same,pest or weed control at 62 g/ha,"ragweed; Ambrosia artemisiifolia, post-emergence, Postemergence, 62 g ai/ha, scale 0 to 100 (0 no effect, 100 complete control), 13 to 15 days, read-out: Plant response rating, Ragweed",55%
same,pest or weed control at 16 g/ha,"large (Lg) crabgrass; 16 g ai/ha, postemergence, 0 is no effect, 100 is complete control, read-out: Plant response rating (0 to 100), Crabgrass, Large",5%
same,pest or weed control at 31 g/ha,"large (Lg) crabgrass; 31 g ai/ha, postemergence, visual rating, scale 0 to 100 (0 no effect, 100 complete control), 13 to 15 days, read-out: Crabgrass, Large plant response rating",5%
same,pest or weed control at 125 g/ha,"large (Lg) crabgrass; 125 g ai/ha, postemergence, visual rating, scale 0 to 100 (0 no effect, 100 complete control), read-out: Plant response rating, Crabgrass, Large",20%
same,pest or weed control at 62 g/ha,"large (Lg) crabgrass; Postemergence, 62 g ai/ha, scale 0 to 100 (0 no effect, 100 complete control), 13 to 15 days, read-out: Plant response rating, Crabgrass, Large",15%
same,"Barnyardgrass plant response rating (0 to 100 scale, 0 is no effect, 100 is complete control)",barnyardgrass [1]; 125 g ai/ha,100
same,pest or weed control at 31 g/ha,"barnyardgrass [1]; Echinochloa crus-galli, pre-emergence, 240 h, 31 g ai/ha, 0 to 100 scale where 0 is no effect and 100 is complete control, visual, approximately 10 days, read-out: Plant response rating, Barnyardgrass",50%
same,"Ryegrass, Italian plant response rating",Italian ryegrass; [3],0
same,pest or weed control at 16 g/ha,"Italian ryegrass; Lolium multiflorum, post-emergence, 16 g ai/ha, postemergence, 0 is no effect, 100 is complete control, read-out: Plant response rating (0 to 100), Ryegrass, Italian",0%
same,pest or weed control at 125 g/ha,"Italian ryegrass; Lolium multiflorum, post-emergence, 125 g ai/ha, postemergence, visual rating, scale 0 to 100 (0 no effect, 100 complete control), read-out: Plant response rating, Ryegrass, Italian",0%
same,pest or weed control at 62 g/ha,"Italian ryegrass; Lolium multiflorum, post-emergence, Postemergence, 62 g ai/ha, scale 0 to 100 (0 no effect, 100 complete control), 13 to 15 days, read-out: Plant response rating, Ryegrass, Italian",0%
same,pest or weed control at 16 g/ha,"barnyardgrass [2]; 16 g ai/ha, postemergence, 0 is no effect, 100 is complete control, read-out: Plant response rating (0 to 100), Barnyardgrass",5%
same,pest or weed control at 31 g/ha,"barnyardgrass [2]; 31 g ai/ha, postemergence, visual rating, scale 0 to 100 (0 no effect, 100 complete control), 13 to 15 days, read-out: Barnyardgrass plant response rating",5%
same,pest or weed control at 125 g/ha,"barnyardgrass [2]; 125 g ai/ha, postemergence, visual rating, scale 0 to 100 (0 no effect, 100 complete control), read-out: Plant response rating, Barnyardgrass",20%
same,pest or weed control at 62 g/ha,"barnyardgrass [2]; Postemergence, 62 g ai/ha, scale 0 to 100 (0 no effect, 100 complete control), read-out: Plant response rating, Barnyardgrass",10%
same,"Nutsedge, Yellow plant response rating",yellow nutsedge; [3],5
same,pest or weed control at 16 g/ha,"yellow nutsedge; Cyperus, post-emergence, 16 g ai/ha, postemergence, 0 is no effect, 100 is complete control, read-out: Plant response rating (0 to 100), Nutsedge, Yellow",5%
same,pest or weed control at 125 g/ha,"yellow nutsedge; Cyperus, post-emergence, 125 g ai/ha, postemergence, visual rating, scale 0 to 100 (0 no effect, 100 complete control), read-out: Plant response rating, Nutsedge, Yellow",5%
same,pest or weed control at 62 g/ha,"yellow nutsedge; Cyperus, post-emergence, Postemergence, 62 g ai/ha, scale 0 to 100 (0 no effect, 100 complete control), 13 to 15 days, read-out: Plant response rating, Nutsedge, Yellow",5%
same,pest or weed control at 250 g/ha,"sedge, umbrella",85%
same,pest or weed control at 31 g/ha,pigweed; 31 g ai/ha,90%
same,pest or weed control at 125 g/ha,pigweed; 125 g ai/ha,100%
same,Lambsquarters plant response rating,lambsquarters; [3],80
same,pest or weed control at 16 g/ha,"lambsquarters; Chenopodium album, post-emergence, 16 g ai/ha, postemergence, 0 is no effect, 100 is complete control, read-out: Plant response rating (0 to 100), Lambsquarters",30%
same,pest or weed control at 125 g/ha,"lambsquarters; Chenopodium album, post-emergence, 125 g ai/ha, postemergence, visual rating, scale 0 to 100 (0 no effect, 100 complete control), read-out: Plant response rating, Lambsquarters",95%
same,pest or weed control at 62 g/ha,"lambsquarters; Chenopodium album, post-emergence, Postemergence, 62 g ai/ha, scale 0 to 100 (0 no effect, 100 complete control), 13 to 15 days, read-out: Plant response rating, Lambsquarters",80%
